Assay results published in PubChem BioAssay AID2305 (GlaxoSmithKline (GSK), 2010).

test system: P. falciparum 3D7 growth, pLDH absorbance; test: P. falciparum 3D7 growth inhibition, dose response, strain 3D7 (AID 2305)

O=C(/C=C/c1ccc(Cl)c(Cl)c1)NCCCCCN1CCC(NC(=O)Nc2ccccc2Cl)CC1 and O=C(/C=C/c1ccc(Cl)c(Cl)c1)NCCCCCN1CCCN(C(=O)Nc2ccc(Cl)c(C(F)(F)F)c2)CC1 are within 1.5-fold of each other in IC50: 710 nM for the first, 730 nM for the second.

O=C(NCCN1CCN(S(=O)(=O)c2ccc(OC3CCNCC3)c(Br)c2)CC1)c1ccc(Cl)c(Cl)c1 and COc1ccc(Cl)cc1N1CCN(CCCNC(=O)c2ccc(-c3nc4cc(Cl)c(Cl)cc4[nH]3)c(C)c2)CC1 are within 1.5-fold of each other in IC50: 890 nM for the first, 870 nM for the second.

CN(C)CCN(Cc1ccc(-c2ccc(CNCCc3ccccc3)cc2)nc1)C(=O)CCC1CCCC1 and O=C(Nc1cccc(OCc2ccccc2)c1)c1ccc(CN2CCC(Cc3ccccc3)CC2)cc1 are within 1.5-fold of each other in IC50: 800 nM for the first, 850 nM for the second.

First: CN1CCN(Cc2ccc(-c3ccc4c(Nc5ccc(F)cc5Cl)ccnc4c3)o2)CC1
Second: CN(c1cc(NC(=O)c2ccc(F)cc2)ccn1)C1CCN(Cc2ccc(C#N)cc2)CC1
The IC50 of the first is 11-fold lower: 140 nM for the first, 1510 nM for the second. The first is the more potent here.

First: O=C(Nc1ccc(CC(=O)N2CCc3cc(Cl)c(N4CCN(C/C=C/c5ccccc5)CC4)cc32)cc1)Nc1cccc([N+](=O)[O-])c1
Second: O=C(Nc1ccc(-c2ccccc2)cc1)Nc1cccc(Cn2nc(Cl)c(N3CCNCC3)cc2=O)c1
The IC50 of the first is 2.1-fold higher: 760 nM for the first, 370 nM for the second.

First: CCOc1ccc(Nc2ccc3nonc3c2S(=O)(=O)Nc2ccc(OCC)cc2)cc1
Second: O=C(Nc1cc(Cl)ccc1O)c1ccc(Oc2ccc(C(=O)Nc3cc(Cl)ccc3O)cc2)cc1
The IC50 of the first is 1.8-fold lower: 510 nM for the first, 920 nM for the second.

Compared with COc1c(C2=CCN(CCCCNC(=O)c3ccc(-c4ccc(C#N)cc4)cc3)CC2)c(C)cc2c1C(C)(C)CCC2(C)C, CC1(C)CCC(C)(C)c2c1ccc(C1CCN(CCCCNC(=O)c3ccc(-c4ccc(Cl)cc4)cc3)CC1)c2O is 2-fold lower in IC50: 950 nM for the first, 480 nM for the second.

O=C(Nc1cccc(-c2cc3ccccc3[nH]2)c1)C1CCN(Cc2ccccc2O)CC1 and Cc1ccc(NC(=O)c2ccc3ncccc3c2)cc1OC1CCN(Cc2ccco2)C1 (stereo unspecified) are within 1.5-fold of each other in IC50: 940 nM for the first, 1250 nM for the second.

Going from Cc1ccc(C(=O)NC2C(=O)NC2c2ccccc2)c(C)c1 (stereo unspecified) to CC[C@H]1CN2CC[C@@H]1C[C@H]2[C@H](O)c1cc(N2CCC(c3ccccc3)CC2)nc2ccc(OC)cc12, the IC50 falls from 950 nM to 350 nM (2.7-fold).

First: Cc1cccc2c(/C=C/C(=O)NC3CCC(CCN4CCc5ccc(C#N)cc5CC4)CC3)c[nH]c12 (stereo unspecified)
Second: COc1c(C2CCN(CCCCNC(=O)c3ccc(-c4ccc(C#N)cc4)c(O)c3)CC2)ccc2c1CCCC2
The IC50 of the first is 6.1-fold higher: 1220 nM for the first, 200 nM for the second. The second is the more potent here.

COc1cc(NC(=O)c2cccc([N+](=O)[O-])c2)cc(S(=O)(=O)c2ccc(Cl)cc2)c1 and CN1CCCc2cc(NC(=O)c3cc(-c4ccc(Cl)cc4)cs3)ccc2C1 are within 1.5-fold of each other in IC50: 1130 nM for the first, 810 nM for the second.

CCOC(C(=O)OCC1CCCN(C)C1)(c1ccccc1)c1ccccc1 (stereo unspecified) and COc1ccc(NC(=O)Nc2nc3ccccc3s2)cc1N1CCN(C)CC1 are within 1.5-fold of each other in IC50: 870 nM for the first, 700 nM for the second.

CCNC[C@H]1CCCN1CCOc1ccc(-n2cnc3cc(-c4ccc(Cl)cc4)sc3c2=O)cc1OC and COc1ccc(CCNc2nc(SCc3ccccc3Cl)nc3ccccc23)cc1OC are within 1.5-fold of each other in IC50: 810 nM for the first, 940 nM for the second.

COc1ccc(-c2cc3nc4c(c(NCCCn5ccnc5)n3n2)CCCC4)cc1 and COc1cc(CNCCCCCCNCc2cc(OC)cc3ccccc23)c2ccccc2c1 are within 1.5-fold of each other in IC50: 730 nM for the first, 590 nM for the second.

Going from COc1cc2ncnc(Nc3ccc4nc(Cc5ccccc5)[nH]c4c3)c2cc1OC to CN(C)Cc1ccc(-c2cc3c(Nc4ccc(OCc5cccc(F)c5)c(Cl)c4)ncnc3s2)[nH]1, the IC50 falls from 1480 nM to 820 nM (1.8-fold). The second is the more potent here.

O=C(Nc1ccc(N2CCNCC2)cc1)c1ccn2ncc(-c3cccc(Cl)c3)c2n1 and COc1ccccc1N1CCN(CCCCN(C(=O)Nc2cccc(Cl)c2)C(=O)Nc2cccc(Cl)c2)CC1 are within 1.5-fold of each other in IC50: 920 nM for the first, 710 nM for the second.

Compared with COc1cccc(NC(=O)NC2CCN(c3ccnc(Nc4cc(OC)c(OC)c(OC)c4)n3)C2)c1 (stereo unspecified), O=C(Nc1ccc(Cl)c(Cl)c1)N1CCC(CN2CCC(c3c[nH]c4ccccc34)CC2)CC1 is 3-fold lower in IC50: 860 nM for the first, 290 nM for the second.

CC(C)Nc1cc(C(=O)N[C@@H](Cc2ccccc2)[C@H](O)CNCc2cccc(C(F)(F)F)c2)c(F)c(N2CCCCS2(=O)=O)c1 and CCN(CC)c1ccc(C(=O)Cn2ccc(=N)cc2)cc1 are within 1.5-fold of each other in IC50: 790 nM for the first, 1000 nM for the second.
